# Reference: the METLIN SMRT retention time set (Domingo-Almenara et al. 2019)
# Assay: gradient 5% acetonitrile 3 min, to 50% in 2 min, to 85% in 15 min, held 3 min, 100 µL/min
# Details: column: Zorbax Extend-C18 2.1 x 50 mm; eluents: water / acetonitrile, 0.1% formic acid
# Procedure, shortened: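 Each retention time is based on an adduct peak selected computationally and verified by manual inspection. Measurements used HPLC–quadrupole time-of-flight mass spectrometry in positive and negative ionization mode on mixtures of ~100 pure standards. Chromatography ran on a Zorbax Extend-C18 column (2.1 × 50 mm, 1.8 μm) at 100 μL/min with water and acetonitrile, each containing 0.1% formic acid, and dead and dwell volumes of 40 μL and 900 μL.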
row,RP-LC retention time [s],Structure (SMILES)
1,603,NC(=O)C1CCN(C(=O)c2nnn(-c3ccccc3Cl)c2-c2ccncc2)CC1
2,821,Cc1nc(Cn2cccc2C(=O)Nc2cccc(C)c2C)no1
3,707,O=C(c1ccc(Cn2cncn2)cc1)N1CCN(c2ccccc2)CC1
4,603,CCc1ccc(Nc2nc(C(=O)NCCc3cnc[nH]3)nc3ccccc23)cc1
5,751,CN1c2cc(F)ccc2C(=O)NC12CCN(C(=O)c1ccccc1F)CC2
6,752,Cc1sc(-c2cc(C(F)(F)F)[nH]n2)cc1S(=O)(=O)N1CCN(c2ccccn2)CC1
7,787,CCCS(=O)(=O)N1CCC2(CC1)CN(Cc1ccc(OC)cc1)C2=O
8,685,CNc1nc(N2CCCCCC2)nc(-n2cnc(SC)n2)n1
9,1000,O=C(c1nccc2ccccc12)N1CCc2cc(-c3ccno3)ccc21
10,877,COC(=O)N1CCc2ccccc2C1C(=O)Nc1ccccc1C(F)(F)F (stereo not given)
11,803,Cc1ccc(NC(=O)Nc2cccn3nc(C)nc23)cc1
12,770,CC(=O)N1CCc2sc(C(=O)NCc3ccccc3Br)cc2C1
13,889,Cc1cc(Cl)ccc1OCc1nc(-c2ccc3c(c2)ncn3CCC(=O)N2CCCC2)no1
14,854,CCC(C)Sc1nnc(NC(=O)C2CCN(C(=O)c3ccccc3)CC2)s1 (stereo not given)
15,867,CCCn1ccc2sc(C)c(C(=O)NCc3ccc(C)o3)c2c1=O
16,826,CCOC(=O)c1c(NCCc2cccs2)c2cc(Cl)ccc2[nH]c1=O
17,970,O=C(Nc1cnc(-c2ccccc2)nc1)c1ccccc1C(F)(F)F
18,542,CC1CCN(C(=O)c2cc3c(s2)CCC(C(=O)NCCCN2CCOCC2)C3)CC1 (stereo not given)
19,626,CCOC(=O)CNC(=O)Cn1nc2n(c(=O)c1=O)CCN2c1ccccc1
20,970,Cc1cccc(NS(=O)(=O)c2ccc3c(c2)C(=O)N(C)c2ncccc2O3)c1C
21,960,O=C(NCCc1ccccc1)C(=O)NCC1COc2ccccc2O1 (stereo not given)
22,989,O=C(O)c1ccc(Nc2nc(-c3ccc(Br)cc3)cs2)cc1
23,569,COc1cccc(CN2CCC3(CCC3O)CC2)n1 (stereo not given)

row,RP-LC retention time [s],Structure (SMILES)
1,866,O=C(Nc1cccnc1)N1CCC(Cc2cccc(Oc3ccc(C(F)(F)F)cn3)c2)CC1
2,726,O=C(Cn1nc2n(c1=O)CCCCC2)Nc1ccc(Br)cc1
3,1060,Cc1cccc(N2CCN([C@H]3CS(=O)(=O)C[C@@H]3S(=O)(=O)c3ccccc3)CC2)c1C
4,862,CCCCN1N=C(C(=O)N2CCOCC2)S(=O)(=O)c2cc(Cl)ccc21
5,960,CN(C)S(=O)(=O)c1ccc2c(c1)N(CC(=O)N1CCc3ccccc31)C(=O)C1CCCCN21 (stereo not given)
6,779,Cn1cc(CCNC(=O)Nc2ccccc2C(F)(F)F)c2cccnc21
7,704,CN(CCNC(=O)C1CCCN(S(=O)(=O)c2ccc3c(ccn3C)c2)C1)Cc1ccccc1 (stereo not given)
8,603,CCCC(=O)Nc1nc2ccc(CCC(=O)N3CCN(c4ccccn4)CC3)cc2s1
9,1100,CCC(c1ccccc1)c1nc(-c2ccc3nnn(C)c3c2)no1 (stereo not given)
10,692,CCN1C(=O)C2CCC(=O)N2c2ccc(C(=O)NC3CCCC3)cc21 (stereo not given)
11,780,CCc1cccc(NS(=O)(=O)c2ccc3c(c2)CCCC(=O)N3)c1
12,631,CC(C)c1nccn1C1CN(C(=O)CCCc2c[nH]c3ccccc23)C1
13,555,CCOC(=O)CN1CCC(c2nnc(-c3ccc(F)cc3)o2)CC1
14,1060,Cc1ccc(S(=O)(=O)CCC(=O)N2CCCC2c2nc(-c3ccc(Cl)cc3)no2)cc1 (stereo not given)
15,699,Cc1ccnc(NS(=O)(=O)c2ccc(NC(=O)c3ccc([N+](=O)[O-])s3)cc2)n1
16,672,CC(=O)N1CCc2cc(-c3ccc(C(=O)NCCCN4CCCC4=O)cc3)ccc21
17,726,CCN1CCn2c(nc3cc(C(=O)NCc4ccc(OC(C)C)cc4)ccc32)C1=O
18,1240,Cc1ccc(NC(=O)Cn2nc(N3CCCC(C)C3)c3ccccc3c2=O)cc1C (stereo not given)
19,657,CCC(CN1CCOCC1)NC(=O)c1c2c(cn(-c3ccc(F)cc3)c1=O)C(=O)CC(C)(C)C2 (stereo not given)
20,884,CCCC(C)C(=O)N1CCCN(C2=NS(=O)(=O)C(c3ccc(C)cc3)=C2C)CC1 (stereo not given)
21,659,COc1ccc(Nc2cc(C(=O)N3CCCC3)nc3ccc(C)cc23)cc1
22,971,Cc1ccc(S(=O)(=O)N2CCC(c3nc(-c4cccc(-c5ccn[nH]5)c4)no3)CC2)cc1
23,611,CCN1CCN(C(=O)c2cc3n(n2)CC(C)(C(=O)NC2CCCCCC2)N(C)C3=O)CC1 (stereo not given)

row,RP-LC retention time [s],Structure (SMILES)
1,1070,COc1ccc(S(=O)(=O)N2CCCC(C(=O)NCCC3=CCCCC3)C2)cc1C (stereo not given)
2,606,Cc1cc(C)cc(C(=O)N2CCCC(C(=O)NCCN3CCCC3)C2)c1 (stereo not given)
3,867,COc1ccc(OCc2nn3c(-c4ccc(OC)c(OC)c4)nnc3s2)cc1
4,812,O=C(CCCN1C(=O)c2cccc3cccc(c23)C1=O)NC1CCCCC1
5,864,Cc1cc([N+](=O)[O-])ccc1NC(=O)C(=O)NCc1cccs1
6,550,CC(C)NC(=O)N(C)Cc1nc2cc(C(=O)N3CCCC3)ccc2n1C
7,1260,CCOC(=O)c1cc(C2CC2)nc2c1c(=O)n(Cc1ccc(Cl)cc1)c(=O)n2C
8,608,NC(=O)C1CCN(C(=O)c2cn(-c3cccc(F)c3)nn2)CC1
9,559,CCn1cc(-c2ccncc2)cc1C(=O)NCc1ccc(N(C)C)cc1
10,732,Cc1ccc(NC(=O)C2CCN(S(=O)(=O)c3ccc4c(c3)NC(=O)CO4)CC2)c(C)c1
11,728,COc1ccccc1NC(=O)NCCc1nc2cccnc2n1C1CCCC1
12,821,CC(Cc1ccco1)NC(=O)C1CCN(Cc2cc3ccccc3n2Cc2cccc(Cl)c2)CC1 (stereo not given)
13,609,O=C(NCC1(CO)CC1)c1c(F)cccc1Cl
14,698,CCc1ccccc1NC(=O)CN1C(=O)NC2(CCC(C)CC2)C1=O (stereo not given)
15,797,CC(C(=O)O)c1ccc2c(c1)Cc1cccnc1O2 (stereo not given)
16,1200,C=Cc1ccc(Cn2nc(-c3nc(-c4ccc(F)cc4)no3)ccc2=O)cc1
17,608,CCN1CCN(CCCNS(=O)(=O)c2cc(-c3nc(C)c(C)s3)sc2C)CC1
18,817,Cn1c(=O)sc2cc(S(=O)(=O)N3CCC(C(=O)Nc4ccc5c(c4)OCO5)CC3)ccc21
19,748,CCOc1cc(=O)n2c(c1C(=O)Nc1cc(F)ccc1F)CCCC2
20,754,O=C(Nc1cnc2ccccc2c1)N(c1ccccc1)c1ccccc1
21,635,Cc1c(C(=O)N2CCN(C)CC2)cnn1-c1ccc(-c2nc(C3CC3)no2)cn1
22,710,CCOc1ccc(NC(=O)CCC2CCN(c3cc(NC4CC4)ncn3)CC2)cc1
23,667,CCOc1ccc2ncc(S(=O)(=O)c3ccc(C)cc3)c(N3CCN(C)CC3)c2c1

row,RP-LC retention time [s],Structure (SMILES)
1,708,COCc1c(C(=O)O)nnn1-c1cc(C)ccc1F
2,706,Cc1ccc(Cn2c(=O)c(N3CCN(C(=O)NCc4ccco4)CC3)nc3cccnc32)cc1
3,1070,CCOc1ccc(-c2noc(Cn3nc(-c4ccccc4)ccc3=O)n2)cc1
4,636,CCN1CCN(C(=O)C2CCCN(S(=O)(=O)c3ccc(OC)c(C)c3)C2)CC1 (stereo not given)
5,713,CN(C)c1ccc(C(=O)NC2CCN(c3ccccc3)C2=O)cc1 (stereo not given)
6,586,Cc1cn(C)c(CC(=O)NCCCN2CCCC(C)C2)c1C(=O)O (stereo not given)
7,890,CCN1C(=O)C(C)(C(=O)NCc2ccccc2Cl)Oc2cccnc21 (stereo not given)
8,940,Cc1cc(-c2nnc(-c3ccc(F)cc3)o2)c(C)n1CC(=O)NCc1cccc(F)c1
9,903,COC(=O)CCNC(=O)C1c2ccccc2C(=O)N(C2CCCC2)C12CCCCC2 (stereo not given)
10,1060,CC(NC(=O)C1CCCN(c2nccnc2Sc2ccccc2)C1)c1ccccc1 (stereo not given)
11,1270,Cc1ccc(-c2csc(Cc3nc(-c4cccc(F)c4)no3)n2)cc1
12,717,Cc1cccc(N2CCN(C(=O)CCC3CCN(c4cc(NC5CC5)ncn4)CC3)CC2)c1
13,742,O=C(NCc1ccc(Cl)cc1)c1cccn1-c1cccnc1
14,810,O=C(NCCc1csc(-c2cccc(F)c2)n1)Nc1c(F)cccc1F
15,881,COc1ccccc1OCC(=O)Nc1ccc2c(c1)N(C(=O)c1ccco1)CCC2
16,637,O=C(c1ccc(=O)n(CCN2CCOCC2)c1)N1CCC(Cc2ccccc2)CC1
17,625,CC1CCN(c2ncc3c(n2)CCC(C(=O)NCc2nc4ccccc4n2C)C3)CC1 (stereo not given)
18,595,Cc1cnc(C2CN(Cc3cccc(F)c3)C2)n1Cc1ccccc1
19,696,Cc1ccc(-c2nc3cnccn3c2NCCC(=O)NC2CCCC2)cc1
20,762,O=C(c1ccc2c(c1)OCO2)N1CCCC2(C1)NC(=O)N(Cc1ccccc1)C2=O (stereo not given)
21,648,CC(C)Nc1nc(N2CCN(C3CCCCC3)CC2)nc2c1cnn2C
